From patent US10073082B2, “Proteasome inhibition assay and methods of use” (UNIVERSITY HEALTH NETWORK, priority 2013, dated 2018)
Peptide text beside a SMILES is read from it. * marks the point of attachment. Cbz = O=C(OCc1ccccc1)*

Columns and labels:
Assay type in all cases: cell-based, human
[1] = system: P-Akt (P-Ser473) in peripheral blood monocytes; assay: Akt phosphorylation in LPS activated monocytes from pretreated whole blood
Protocol: (§1) Whole blood samples from normal human donors were collected. 100 μL aliquots of the whole blood were inserted into the bottom of 12×75 mm tubes. In order to reduce the potential for contamination of the sample with unfixed cells, blood was removed from the side of the tubes with a cotton swab. 1-2 μL of a proteasome effector was added to a first portion of the tubes and these tubes were incubated for 2 hours at 37° C. in a water bath. In this example, the proteasome effector was Bortezomib or MG-132, both proteasome inhibitors. […]
(§2) Following the above wash steps, the fixed and permeabilized cells were resuspended in 100 μL of cold Wash Buffer comprising antibodies to specific intracellular antigens (e.g., signaling targets including P-ERK, P-Akt, P-p38, P-SAPK, P-S6, and antibodies to IκB). […] The supernatant was aspirated and the cell pellet was resuspended in 350 μL of Resuspension Buffer (PerFix-P® kit) and analyzed on a flow cytometer (GALLIOS™) using a protocol with defined population gates and series of dual parameter histograms. A CD45-KO vs. SS dual parameter histogram was collected and a gate around the leukocyte population based on the CD45+ fluorescence and SS characteristics was drawn to exclude debris (CD45 negative events). […] The collected flow cytometric data was analyzed using KALUZA™ software. […]

[2] = system: IκB in peripheral blood monocytes; assay: Flow cytometry assay, whole blood pretreated with effector: LPS induced degradation of IκB in monocytes; details: whole blood pretreated with compound, then LPS
Protocol: as §1, with “inhibitors. Following pretreatment with the proteasome effector, 2 μL of 50 mg/mL stock solution (100 ng) of an IκB degradation agonist was added to the tubes and the tubes were incubated from 1 minute to 60 minutes at 37° C. in a water bath. In this example, the agonist was lipopolysaccharide (LPS). A second portion of the tubes were treated with the IκB degradation agonist and no proteasome effector.” for “inhibitors.”
Following the above wash steps, the fixed and permeabilized cells were resuspended in 100 μL of cold Wash Buffer comprising antibodies to specific intracellular antigens (e.g., signaling targets including P-ERK, P-Akt, P-p38, P-SAPK, P-S6, and antibodies to IκB). […] The supernatant was aspirated and the cell pellet was resuspended in 350 μL of Resuspension Buffer (PerFix-P® kit) and analyzed on a flow cytometer (GALLIOS™) using a protocol with defined population gates and series of dual parameter histograms. A CD45-KO vs. SS dual parameter histogram was collected and a gate around the leukocyte population based on the CD45+ fluorescence and SS characteristics was drawn to exclude debris (CD45 negative events). […] The collected flow cytometric data was analyzed using KALUZA™ software.
(§3) Phosphorylation of signaling pathways activated by LPS, including ERK, Akt (activated by PI3 Kinase), and the ribosomal S6 protein (a marker of protein synthesis) were also monitored together with the degradation of IκB. […] The degradation of IκB in cells pretreated with MG-132 or GDC-0941 was monitored by flow cytometry as described in Example 1. […]

[3] = system: P-S6 (P-Ser235/P-Ser236) in peripheral blood monocytes; assay: S6 phosphorylation in LPS activated monocytes from pretreated whole blood
Protocol: as §1, §2

[4] = system: P-ERK (P-Thr202/P-Tyr204) in peripheral blood monocytes; assay: ERK phosphorylation in LPS activated monocytes from pretreated whole blood; details: LPS activated monocytes; for "early" (first) ERK phosphorylation peak: 2-4 minutes; for "late" (second) ERK activation peak: about 10 minutes
Protocol: (§4) Whole blood samples from normal human donors were collected. 100 μL aliquots of the whole blood were inserted into the bottom of 12×75 mm tubes. In order to reduce the potential for contamination of the sample with unfixed cells, blood was removed from the side of the tubes with a cotton swab. 1-2 μL of a proteasome effector was added to a first portion of the tubes and these tubes were incubated for 2 hours at 37° C. in a water bath. In this example, the proteasome effector was Bortezomib or MG-132, both proteasome inhibitors. Following pretreatment with the proteasome effector, 2 μL of […] stock solution (100 ng) of an IκB degradation agonist was added to the tubes and the tubes were incubated from 1 minute to 60 minutes at 37° C. in a water bath. In this example, the agonist was lipopolysaccharide (LPS). A second portion of the tubes were treated with the IκB degradation agonist and no proteasome effector. 2 μL of an IκB degradation agonist was added to these tubes and the tubes were incubated from 1 minute to 60 minutes as described above. For control tubes, 2 μL of phosphate buffered saline (PBS) was added to the tubes and the tubes were incubated as described above.
(§5) Following incubation, the cells were fixed and permeabilized with a PerFix-P® kit (Beckman Coulter, Inc., Brea. Calif.) according to the manufacturer's instructions. The fixed and permeabilized cells were then washed with 2 mL of Wash Buffer (PBS (w/o Ca++/Mg++) with 2% fetal bovine serum (FBS), sterile filtered (0.22 μm filter)) in the tubes and centrifuged at 500×g for 4 minutes. The cell pellet was resuspended in 2 mL of cold (4° C.) Wash Buffer, centrifuged at 500×g for 4 minutes, and the supernatant was aspirated.
Following the above wash steps, the fixed and permeabilized cells were resuspended in 100 μL of cold Wash Buffer comprising antibodies to specific intracellular antigens (e.g., signaling targets including P-ERK, P-Akt, P-p38, P-SAPK, P-S6, and antibodies to IκB). The antibodies were labeled with different fluorochromes (e.g. fluorophores) to facilitate their-individual measurement of the intracellular antigens. […] For example, anti-CD14 antibodies were included to specifically label monocytes, anti-CD3 antibodies or anti-CD19 antibodies were included to specifically label T or B-cells respectively, and/or anti-CD38/CD138 antibodies were included to specifically label plasma cells. The cells were incubated with the antibodies for 30 minutes at room temperature and then the cells were washed in 2 mL of cold Wash Buffer and centrifuged as described above. The supernatant was aspirated and the cell pellet was resuspended in 350 μL of Resuspension Buffer (PerFix-P® kit) and analyzed on a flow cytometer (GALLIOS™) using a protocol with defined population gates and series of dual parameter histograms. A CD45-KO vs. SS dual parameter histogram was collected and a gate around the leukocyte population based on the CD45+ fluorescence and SS characteristics was drawn to exclude debris (CD45 negative events). A minimum of 2,500 CD14+ events were collected. […] The collected flow cytometric data was analyzed using KALUZA™ software.
as §3

[5] = system: IκB in peripheral blood lymphocytes; assay: Flow cytometry assay, whole blood pretreated with effector: LPS induced degradation of IκB in lymphocytes; details: whole blood pretreated with inhibitor, then LPS
Protocol: (§6) The assay generally comprises treating whole blood with an IκB degradation agonist and/or proteasome effector, fixing the blood cells, permeabilizing the fixed bloods cells, treating the fixed and permeabilized cells with an alcohol treatment to unmask intracellular phosphor-epitopes, and then staining the treated cells with antibodies for flow cytometry analysis.
(§7) Whole blood samples from normal human donors were collected. 100 μL aliquots of the whole blood were inserted into the bottom of 12×75 mm tubes. In order to reduce the potential for contamination of the sample with unfixed cells, blood was removed from the side of the tubes with a cotton swab. […]
(§8) Following the above wash steps, the fixed and permeabilized cells were resuspended in 100 μL of cold Wash Buffer comprising antibodies to specific intracellular antigens (e.g., signaling targets including P-ERK, P-Akt, P-p38, P-SAPK, P-S6, and antibodies to IκB). […] The supernatant was aspirated and the cell pellet was resuspended in 350 μL of Resuspension Buffer (PerFix-P® kit) and analyzed on a flow cytometer (GALLIOS™) using a protocol with defined population gates and series of dual parameter histograms. A CD45-KO vs. SS dual parameter histogram was collected and a gate around the leukocyte population based on the CD45+ fluorescence and SS characteristics was drawn to exclude debris (CD45 negative events). […]

IκB in granulocytes = assay: Flow cytometry assay, whole blood pretreated with effector: IκB levels in granulocytes after LPS; details: whole blood pretreated with inhibitor, then LPS; 60 minutes time period
Protocol: as §6, §7, §8

[6] = system: peripheral blood monocytes; assay: IκB degradation agonists in whole blood: IκB degradation and signaling pathway activation in monocytes; details: for Pathways Activated: Target Cell Population: Monocytes
Protocol: as §4, §5
(§9) Following the above wash steps, the fixed and permeabilized cells were resuspended in 100 μL of cold Wash Buffer comprising antibodies to specific intracellular antigens (e.g., signaling targets including P-ERK, P-Akt, P-p38, P-SAPK, P-S6, and antibodies to IκB). The antibodies were labeled with different fluorochromes (e.g. fluorophores) to facilitate their-individual measurement of the intracellular antigens. In order to target specific cell populations in the assay, antibodies capable of differentiating cell populations within the blood sample were also included in some of the tubes. For example, anti-CD14 antibodies were included to specifically label monocytes, anti-CD3 antibodies or anti-CD19 antibodies were included to specifically label T or B-cells respectively, and/or anti-CD38/CD138 antibodies were included to specifically label plasma cells. The cells were incubated with the antibodies for 30 minutes at room temperature and then the cells were washed in 2 mL of cold Wash Buffer and centrifuged as described above. The supernatant was aspirated and the cell pellet was resuspended in 350 μL of Resuspension Buffer (PerFix-P® kit) and analyzed on a flow cytometer (GALLIOS™) using a protocol with defined population gates and series of dual parameter histograms. A CD45-KO vs. SS dual parameter histogram was collected and a gate around the leukocyte population based on the CD45+ fluorescence and SS characteristics was drawn to exclude debris (CD45 negative events). A minimum of 2,500 CD14+ events were collected. A stop count region was set from the CD14-PC7 vs. SS histogram gated on monocytes. Dual parameter histograms gated on the appropriate populations were created to measure the populations of interest. The collected flow cytometric data was analyzed using KALUZA™ software.
(§10) Phosphorylation of signaling pathways activated by TNF-α, including ERK, Akt, and the ribosomal S6 protein, was monitored together with the degradation of IκB in peripheral blood WBCs. Whole blood samples were treated, activated, and processed as described in Example 1 and the degradation of IκB in peripheral blood cells was monitored by flow cytometry as described in Example 1. The IκB degradation agonist used in this example was TNF-α. […]

granulocytes = assay: IκB degradation agonists in whole blood: IκB degradation and signaling pathway activation in granulocytes; details: Target Cell Population: Granulocytes
Protocol: as §4, §5
Following the above wash steps, the fixed and permeabilized cells were resuspended in 100 μL of cold Wash Buffer comprising antibodies to specific intracellular antigens (e.g., signaling targets including P-ERK, P-Akt, P-p38, P-SAPK, P-S6, and antibodies to IκB). The antibodies were labeled with different fluorochromes (e.g. fluorophores) to facilitate their-individual measurement of the intracellular antigens. […] The supernatant was aspirated and the cell pellet was resuspended in 350 μL of Resuspension Buffer (PerFix-P® kit) and analyzed on a flow cytometer (GALLIOS™) using a protocol with defined population gates and series of dual parameter histograms. A CD45-KO vs. SS dual parameter histogram was collected and a gate around the leukocyte population based on the CD45+ fluorescence and SS characteristics was drawn to exclude debris (CD45 negative events). […] The collected flow cytometric data was analyzed using KALUZA™ software.

[7] = system: peripheral blood lymphocytes; assay: IκB degradation agonists in whole blood: IκB degradation and signaling pathway activation in lymphocytes; details: for Pathways Activated: Target Cell Population: Lymphocytes (subpopulation)
Protocol: as §4, §5, §9, §10

For `CS(=O)(=O)N1CCN(Cc2cc3nc(-c4cccc5[nH]ncc45)nc(N4CCOCC4)c3s2)CC1` [GDC-0941], the Akt activation [1] was “inhibited”, the “effect on LPS induced degradation of IκB in monocytes” value [2] was “no effect” and the “activation of ribosomal S6 protein” value [3] was “minimal impact”. The “"early" (first) ERK phosphorylation peak” value [4] was “inhibited” and the “"late" (second) ERK activation peak” value [4] was “unchanged”.

In the case of `CC(C)C[C@@H](C=O)NC(=O)[C@H](CC(C)C)NC(=O)[C@H](CC(C)C)NC(=O)OCc1ccccc1` [MG-132] (Cbz-Leu-Leu-Leu-aldehyde), the “LPS induced degradation of IκB in lymphocytes” value [5] is reported as “No significant degradation”, the Akt activation [1] is reported as “no effect” and the “effect on LPS induced degradation of IκB in monocytes” value [2] is reported as “inhibited degradation of IκB”. The “MFI of the S6 phosphorylation response, lower than in the sample treated with only LPS” value [3] was “approximately 50%”, the “degradation of IκB in granulocytes” value (IκB in granulocytes) was “No significant degradation” and the “"early" (first) ERK phosphorylation peak” value [4] was “not the first”. For the same molecule, the “"late" (second) ERK activation peak” value [4] was “inhibited”.

In the case of TNFα, the “Pathways Activated” value ([6]; pathway: IκB > NFκB) is reported as “IκB > NFκB”, the “Pathways Activated” value ([6]; pathway: PI3 kinase > Akt) is reported as “PI3 kinase > Akt” and the “Pathways Activated” value ([6]; pathway: Tpl-2 > ERK/MAP kinase) is reported as “Tpl-2 > ERK/MAP kinase”. The “Akt activation in monocytes” value ([6]; agonist alone) was “Neither Akt nor S6 was activated”, the “ERK activation in monocytes” value ([6]; agonist alone) was “activated” and the “S6 activation in monocytes” value ([6]; agonist alone) was “Neither Akt nor S6 was activated”. For the same molecule, the “degradation of IκB in monocytes” value ([6]; agonist alone) was “induced degradation of IκB”, the “time of peak loss of IκB after stimulation” value ([6]; monocytes) was 10 min and the “Pathways Activated” value (granulocytes) was “P-p38 MAP kinase”. For the same molecule, the “Pathways Activated” value ([7]; pathway: ERK/MAP kinase (Tpl-2)) was “ERK/MAP kinase (Tpl-2)”, the “Pathways Activated” value ([7]; pathway: IκB > NFκB) was “IκB > NFκB” and the “Pathways Activated” value ([7]; pathway: PI3 kinase > Akt) was “PI3 kinase > Akt”. For the same molecule, the “Akt activation in lymphocytes” value ([7]; agonist alone) was “Neither Akt nor S6 was activated”, the “ERK activation in lymphocytes” value ([7]; agonist alone) was “no apparent response” and the “S6 activation in lymphocytes” value ([7]; agonist alone) was “Neither Akt nor S6 was activated”. The “degradation of IκB in lymphocytes” value ([7]; agonist alone) was “induced degradation of IκB” and the “time of peak loss of IκB after stimulation” value ([7]; lymphocytes) was 15 min.
